Columns and labels:
[1] = Investigation on transformation of crystal form of type II crystal due to humidity (powder X-ray diffraction); format: physicochemical
Protocol: For the type I, type II, and type III crystals of a monohydrochloride of 9-ethyl-6,6-dimethyl-8-(4-morpholin-4-yl-piperidin-1-yl)-11-oxo-6,11-dihydro-5H-benzo[b]carbazole-3-carbonitrile, the powder X-ray diffraction was measured under the following conditions. The measurement results for the type II crystal, the type III crystal, and the type I crystal are shown in FIGS. 1, 2, and 3. • Measuring apparatus: X'Pert-Pro MPD (manufactured by PANalytical HV) • Anticathode: Cu • Tube voltage: 45 kV • Tube current: 40 mA • Step width: 0.02 • Scan axis: 20 • Sampling time per: 43 seconds • Scan range: 3 to 40°
In order to investigate the transformation of the crystal form of the type II crystal of the monohydrochloride of 9-ethyl-6,6-dimethyl-8-(4-morpholin-4-yl-piperidin-1-yl)-11-oxo-6,11-dihydro-5H-benzo[b]carbazole-3-carbonitrile due to humidity, samples were placed in the following humidity conditions, and changes in crystal form were investigated using the powder X-ray diffraction.
Test Conditions 1 (Investigation on Transformation of Crystal form of Type II Crystal at Low Humidity)
• Amount of sample: About 17 mq • Temperature: Constant temperature of about 25° C. • Atmospheric gas: Dry nitrogen • Flow rate of atmospheric gas: 200 sccm (ml/min) • Mass change rate: 0.002 dm/dt • Relative humidity: Samples were placed at a relative humidity of 0% RH • Minimum waiting time: 10 min • Maximum waiting time: 1200 min. Test Conditions 2 (Iinvestigation on Transformation of Crystal Form of Type II Crystal at High Humidity) • Amount of sample: About 16 mg • Temperature: Constant temperature of about 25° C. • Atmospheric s: Dry nitrogen • Flow rate of atmospheric gas: 200 sccm (ml/min) • Mass change rate: 0.002 dm/dt (%/min) • Relative humidity: Samples were placed at a relative humidity of 70% RH • Minimum waiting time: 10 min • Maximum waiting time: 1200 min

[2] = Measurement of vapor sorption isotherm of type II crystal (DVS-1); format: physicochemical; details: for weight change rate (%): about 25° C.
Protocol: For the type II crystal of the monohydrochloride of 9-ethyl-6,6-dimethyl-8-(4-morpholin-4-yl-piperidin-1-yl)-11-oxo-6,11-dihydro-5H-benzo[b]carbazole-3-carbonitrile (about 5 mg), the vapor sorption isotherm was measured using a dynamic vapor sorption isotherm instrument: DVS-1 (Surface Measurement Systems) under the following conditions.
• Temperature: Constant temperature of about 25° C. • Atmospheric gas: Dry nitrogen • Flow rate of atmospheric gas: 200 sccm (ml/min) • Minimum waiting time: 10 min • Maximum waiting time: 1200 min • Mass change rate: 0.002 dm/dt (% min), where the mass change rate was 0.001 dm/dt (% min) at 5, 10, 15, 55, 60, and 65% RH.
Relative humidity: Relative humidity was varied to 0, 5, 10, 15, 20, 30, 40, 50, 55, 60, 65, 70, 80, 90, 80, 70, 65, 60, 55, 50, 40, 30, 20, 15, 10, 5, and 0% RR in this order. Such variation was regarded as one cycle, and three cycles were carried out. The weight change rate (%) of the type II crystal, when the temperature environment was varied from a relative humidity of 0% RH to 90% RH at about 25° C., was 3.7% in the range of a relative humidity from 0% RH to 15% RH, 0.05% in the range of a relative humidity from 15% RH to 55% RH, 11% in the range of a relative humidity from 55% RH to 65% RH, and 0.04% in the range of a relative humidity from 65% RH to 90% RH.

SMILES: CCc1cc2c(cc1N1CCC(N3CCOCC3)CC1)C(C)(C)c1[nH]c3cc(C#N)ccc3c1C2=O [type II crystal, 9-ethyl-6,6-dimethyl-8-(4-morpholin-4-yl-piperidin-1-yl)-11-oxo-6,11-dihydro-5H-benzo[b]carbazole-3-carbonitrile]
- time after which crystal form had returned to the original form when allowed to stand in the air ([1]; after storage at 70% RH, powder X-ray diffraction measured over time): 4 h
- time to return to the original crystal form when allowed to stand in the air ([1]; after storage at low humidity (0% RH)): within one hour
- relative humidity at which the crystal absorbs moisture and transforms into another crystal form containing water of crystallization (high humidity environment) ([1]; inferred from the XRPD results): ≥ 65 RH
- relative humidity at which the crystal dehydrates to an anhydrate (low humidity environment) ([1]; inferred from the XRPD results): ≤ 15 % RH
- change in crystal form on storage at low humidity ([1]; relative humidity 0% RH, about 25° C., dry nitrogen, powder X-ray diffraction (FIG. 4)): transformation into another crystal form was caused
- change in crystal form on storage at high humidity ([1]; relative humidity 70% RH, about 25° C., powder X-ray diffraction (FIG. 5)): transformation into another crystal form was caused
- form inferred from molecular weight and mass change rate in high humidity environment ([2]; humidity of 65% RH or more): transformed into a monohydrochloride tetrahydrate
- weight change rate (%) ([2]; relative humidity from 0% RH to 15% RH): 3.7%
- weight change rate (%) ([2]; relative humidity from 15% RH to 55% RH): 0.05%
- weight change rate (%) ([2]; relative humidity from 55% RH to 65% RH): 11%
- weight change rate (%) ([2]; relative humidity from 65% RH to 90% RH): 0.04%
- form inferred from molecular weight and mass change rate on storage at low humidity ([2]; stored in an atmosphere of 0% RH): transformed into a monohydrochloride
